This is an account of results in patent US20090036407A1, “FLEA CONTROL METHOD” (priority 2007, published 2009).

SMILES strings stand for the structures.

This experiment deals with eggs of C. felis. Briefly: Eggs and larvae of C. felis, egg to adult development assay (Test A, Test Example 1). Format: in vivo. Conditions: 30 eggs x 3 replicates, 28 days. On the procedure: Eggs and Larvae of C. felis—Egg to Adult Development Assay A larval support media was prepared consisting of 1 g dried bovine blood, 1 g dog biscuit and 5 g of fine sand. Two grams of the larval support media were placed into a 30 mL container for treatment with the test compound and drying. The test compound (3-bromo-N-[4-chloro-2-methyl-6-(methylcarbamoyl)phenyl]-1-(3-chloropyridin-2-yl)-1H-pyrazole-5-carboxamide) was prepared in acetone and serially diluted prior to testing. The concentrations used were as follows: 1 ug/uL, 0.5, 0.25, 0.125, 0.0625 ug/uL. 30 eggs of C. felis were placed into the culturing medium. Each concentration was replicated 3 times giving a total of 90 eggs per dose level. The untreated control was treated with acetone only. The containers were placed into a temperature and humidity controlled room and maintained for 28 days. After the incubation period had elapsed the containers were placed into a freezer for 1 hour. The adults and pupae were counted and % of adults and pupae that developed at each dose level was calculated. The activity was compared to Methoprene.

The mark [1] stands for this setting: concentration 0.0625 (ug/uL) in treated larval support media.
[2] abbreviates: concentration 0.125 (ug/uL) in treated larval support media.
Setting [3] is: concentration 0.25 (ug/uL) in treated larval support media.
Where [4] appears, read: concentration 0.5 (ug/uL) in treated larval support media.
[5] abbreviates: concentration 1.0 (ug/uL) in treated larval support media.

As for `COC(C)(C)CCC[C@H](C)C/C=C/C(C)=C/C(=O)OC(C)C` (racemic) [Methoprene], the “% eggs developed into adults” value runs as follows: under setting [1], 14.4%; under setting [2], 3.3%; under setting [3], 1.1%; under setting [4], 0.0%; under setting [5], 0.0%.
For `CNC(=O)c1cc(Cl)cc(C)c1NC(=O)c1cc(Br)nn1-c1ncccc1Cl` [Test Compound, 3-bromo-N-[4-chloro-2-methyl-6-(methylcarbamoyl)phenyl]-1-(3-chloropyridin-2-yl)-1H-pyrazole-5-carboxamide], the “% eggs developed into adults” value runs as follows: under setting [1], 18.9%; under setting [2], 0.0%; under setting [3], 0.0%; under setting [4], 0.0%; under setting [5], 0.0%.
